Data from paper PMC5949348, “The Metabolism of Separase Inhibitor Sepin-1 in Human, Mouse, and Rat Liver Microsomes” (Frontiers in Pharmacology, 2018).
Where “and” joins values, the source holds several entries; their conditions need not be identical. Equal values may be shown once. Read-outs that look alike come from different tables or passages of the source.

Experiments:
CYP2C9 = target: T1, CYP2C9 (Homo sapiens, UniProt P11712); experiment: Inhibition of sepin-1 on CYP2C9; type: in vitro ADME
T1 construct: purchased XenoTech
Procedure: (§1) Incubations were performed in 1× PBS (pH 7.4), containing 0, 0.156, 0.312, 0.625, 1.25, 2.5, 5, 10, 20, or 40 μM sepin-1, 2 pmol of each cDNA-expressed P450 enzymes, and corresponding substrates: CYP1A2 (phenacetin, 40 μM, 20 min incubation), 2B6 (efavirenz, 20 μM, 30 min), 2C8 (paclitaxel, 10 μM, 30 min), 2C9 (diclofenac, 5 μM, 15 min), 2C19 [(S)-mephenytoin, 40 μM, 20 min], 2D6 (dextromethorphan, 5 μM, 15 min), and CYP3A4 (midazolam, 3 μM, 10 min) in a final volume of 190 μl. After 5 min of pre-incubation at 37°C, the reaction was initiated by adding 10 μl of 20 mM NADPH (final concentration 1.0 mM) and continued for a specific time as presented above with gentle shaking. Incubations without sepin-1 were used as controls. Reactions were terminated by the addition of 200 μl of ice-cold methanol, vortexing for 30 s, and centrifuging at 15,000 × g for 15 min. Each supernatant was transferred to an auto sampler vial and 5.0 μl was injected on to UHPLC coupled with a QQQMS system for the specific metabolite analysis. A MRM method was used. Incubations were conducted in duplicate. Positive controls were performed by using a known specific inhibitor for each of the isoform assays (Supplementary Table S1). […]

CYP1A2 = target: T2, CYP1A2 (Homo sapiens, UniProt P05177); experiment: Inhibition of sepin-1 on CYP1A2; type: in vitro ADME
T2 construct: purchased XenoTech
T2 sequence (P05177 1-516): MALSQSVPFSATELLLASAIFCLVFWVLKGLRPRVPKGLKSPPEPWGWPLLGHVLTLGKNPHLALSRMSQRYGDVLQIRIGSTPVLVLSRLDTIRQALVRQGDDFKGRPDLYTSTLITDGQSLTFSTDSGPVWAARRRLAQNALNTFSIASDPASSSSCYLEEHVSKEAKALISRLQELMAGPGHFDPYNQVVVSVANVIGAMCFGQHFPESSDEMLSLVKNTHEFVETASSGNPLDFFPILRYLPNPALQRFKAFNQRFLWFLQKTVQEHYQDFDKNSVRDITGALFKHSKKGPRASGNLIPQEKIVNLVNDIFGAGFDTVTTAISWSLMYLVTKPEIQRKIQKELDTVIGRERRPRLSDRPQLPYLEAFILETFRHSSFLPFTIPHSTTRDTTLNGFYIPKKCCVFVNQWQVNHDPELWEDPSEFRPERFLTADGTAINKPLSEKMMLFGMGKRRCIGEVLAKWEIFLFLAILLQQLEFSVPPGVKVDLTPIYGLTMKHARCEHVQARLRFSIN
Procedure: as §1

[1] = tested on: cancer cell lines including breast cancer, leukemia, and neuroblastoma; design: method as in Zhang et al., 2014; settings: ref Zhang et al., 2014; cited from earlier work
CYP3A4 = target: T3, CYP3A4 (Homo sapiens, UniProt P08684); experiment: Inhibition of sepin-1 on CYP3A4; type: in vitro ADME
T3 construct: purchased XenoTech
Procedure: as §1

breast cancer xenografts = tested on: breast cancer xenografts; design: method as in Zhang et al., 2014; settings: mice; ref Zhang et al., 2014; cited from earlier work
CYP2C8 = target: T4, CYP2C8 (Homo sapiens, UniProt P10632); experiment: Inhibition of sepin-1 on CYP2C8; type: in vitro ADME
T4 construct: purchased XenoTech
T4 sequence (P10632 1-490): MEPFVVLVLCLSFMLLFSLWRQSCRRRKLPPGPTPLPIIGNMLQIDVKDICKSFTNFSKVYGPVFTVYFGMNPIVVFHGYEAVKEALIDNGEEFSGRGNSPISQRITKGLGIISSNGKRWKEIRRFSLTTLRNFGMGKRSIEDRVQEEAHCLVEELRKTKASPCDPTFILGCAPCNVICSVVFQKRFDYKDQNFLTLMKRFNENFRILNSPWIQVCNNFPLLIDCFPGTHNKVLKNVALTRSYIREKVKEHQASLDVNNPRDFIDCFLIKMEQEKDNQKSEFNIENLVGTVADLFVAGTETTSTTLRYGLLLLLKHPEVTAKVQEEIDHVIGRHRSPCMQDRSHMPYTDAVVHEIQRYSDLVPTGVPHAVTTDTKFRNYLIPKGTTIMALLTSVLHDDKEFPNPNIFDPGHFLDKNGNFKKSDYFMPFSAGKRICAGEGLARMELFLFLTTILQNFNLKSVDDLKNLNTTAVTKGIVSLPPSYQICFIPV
Procedure: as §1

CYP2D6 = target: T5, CYP2D6 (Homo sapiens, UniProt P10635); experiment: Inhibition of sepin-1 on CYP2D6; type: in vitro ADME
T5 construct: purchased XenoTech
Procedure: as §1

separase = tested on: separase; design: method as in Zhang et al., 2014; settings: ref Zhang et al., 2014; cited from earlier work

T5 sequence (P10635 whole entry): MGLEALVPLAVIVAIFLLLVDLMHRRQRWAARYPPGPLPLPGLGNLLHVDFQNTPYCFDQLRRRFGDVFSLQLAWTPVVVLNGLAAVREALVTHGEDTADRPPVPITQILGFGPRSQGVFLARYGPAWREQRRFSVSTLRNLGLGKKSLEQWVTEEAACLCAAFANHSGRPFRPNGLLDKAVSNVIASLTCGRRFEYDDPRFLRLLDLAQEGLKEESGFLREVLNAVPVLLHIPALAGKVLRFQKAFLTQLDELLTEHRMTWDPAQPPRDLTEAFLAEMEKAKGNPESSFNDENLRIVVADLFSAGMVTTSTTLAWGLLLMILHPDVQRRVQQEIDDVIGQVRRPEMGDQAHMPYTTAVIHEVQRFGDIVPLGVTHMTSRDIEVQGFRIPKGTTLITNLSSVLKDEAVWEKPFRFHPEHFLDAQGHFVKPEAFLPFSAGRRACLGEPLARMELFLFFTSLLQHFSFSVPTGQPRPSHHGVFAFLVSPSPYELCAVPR
T1 sequence (P11712 whole entry): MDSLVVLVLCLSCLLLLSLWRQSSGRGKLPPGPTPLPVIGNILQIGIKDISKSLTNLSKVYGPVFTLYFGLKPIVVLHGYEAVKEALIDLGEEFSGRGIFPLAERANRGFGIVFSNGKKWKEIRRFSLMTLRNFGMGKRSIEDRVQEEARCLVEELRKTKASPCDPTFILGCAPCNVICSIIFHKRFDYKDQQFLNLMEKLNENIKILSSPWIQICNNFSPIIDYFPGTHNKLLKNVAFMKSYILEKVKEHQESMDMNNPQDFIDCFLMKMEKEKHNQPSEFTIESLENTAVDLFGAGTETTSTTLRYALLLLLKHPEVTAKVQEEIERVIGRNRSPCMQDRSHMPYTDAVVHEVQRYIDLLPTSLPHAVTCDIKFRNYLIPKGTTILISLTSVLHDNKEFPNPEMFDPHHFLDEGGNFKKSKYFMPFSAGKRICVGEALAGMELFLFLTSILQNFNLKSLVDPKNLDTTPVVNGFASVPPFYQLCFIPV
T3 sequence (P08684 whole entry): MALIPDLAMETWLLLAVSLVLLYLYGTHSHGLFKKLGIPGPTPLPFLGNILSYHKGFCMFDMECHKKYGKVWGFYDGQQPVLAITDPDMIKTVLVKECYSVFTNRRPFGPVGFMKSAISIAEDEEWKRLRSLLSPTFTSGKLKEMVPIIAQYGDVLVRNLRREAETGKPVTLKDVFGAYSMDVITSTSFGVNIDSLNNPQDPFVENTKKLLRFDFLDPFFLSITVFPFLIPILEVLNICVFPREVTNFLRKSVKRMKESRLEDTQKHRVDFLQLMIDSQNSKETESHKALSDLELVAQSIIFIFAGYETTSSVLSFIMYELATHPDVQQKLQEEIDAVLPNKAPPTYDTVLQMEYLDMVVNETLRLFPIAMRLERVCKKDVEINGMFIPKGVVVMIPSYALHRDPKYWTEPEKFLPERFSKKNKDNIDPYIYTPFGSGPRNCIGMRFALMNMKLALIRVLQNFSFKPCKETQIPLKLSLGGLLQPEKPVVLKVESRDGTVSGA

For CC1(C)[N+]([O-])=c2ccc([N+](=O)[O-])cc2=[N+]1[O-] [Sepin-1, 2,2-dimethyl-5-nitro-2H-benzimidazole-1,3-dioxide], the “Inhibition potency class on CYP2C9” value (CYP2C9; FDA classification bands) was “weak inhibition”, the IC50 (CYP2C9; substrate diclofenac 5 μM, 15 min, metabolite 4-O-diclofenac, co-incubation) was > 10 µM and 21.3 µM and the IC50 (CYP1A2; FDA classification bands, read-out: Inhibition potency class on CYP1A2) was 1 to 10 µM. The IC50 (CYP1A2; substrate phenacetin 40 μM, 20 min, metabolite acetaminophen, co-incubation, read-out: IC50 on CYP1A2) was < 10 µM and 8.1 µM, the “Inhibition of cancer cell line growth” value [1] was “selectively inhibits the growth of cancer cell lines” and the IC50 (CYP3A4; FDA classification bands, read-out: Inhibition potency class on CYP3A4) was 1 to 10 µM. For the same molecule, the IC50 (CYP3A4; substrate midazolam 3 μM, 10 min, metabolite 1-O-midazolam, co-incubation, read-out: IC50 on CYP3A4) was < 10 µM and 8.7 µM, the “Inhibition of breast cancer xenograft growth” value (breast cancer xenografts) was “inhibits the growth of breast cancer xenografts in mice” and the “Inhibition potency class on CYP2C8” value (CYP2C8; FDA classification bands) was “weak inhibition”. The IC50 (CYP2C8; substrate paclitaxel 10 μM, 30 min, metabolite 6-O-paclitaxel, co-incubation) was > 10 µM and 17.8 µM, the “Inhibition potency class on CYP2D6” value (CYP2D6; FDA classification bands) was “weak inhibition” and the IC50 (CYP2D6; substrate dextromethorphan 5 μM, 15 min, O-demethylation, co-incubation) was > 10 µM and 42.5 µM. The “Inhibition of separase activity (mode)” value (separase) was “inhibits separase activity in a non-competitive way”.
